In US7410974B2, “Halogenated Quinazolinyl nitrofurans as antibacterial agents” (Ulysses Pharmaceutical Products, Inc., priority 2003, dated 2008):
Values after ≈ are worked out from the molar mass of the structure shown.

Columns and labels:
H. influenzae ATCC 49247 [1] = assay: Minimal Bactericidal Concentration (MBC); assay type: cell-based; settings: Haemophilus influenzae, ATCC49247, 99.9% killing
In short: (§1)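 After MIC reading, samples from each clear microtiter well (at least 5 wells without visible growth) were plated on TSA for viable counts. Plates were incubated at 35° C. for exactly 24 h and colonies counted.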

E. coli ATCC 25922 = assay: Minimal Bactericidal Concentration (MBC); assay type: cell-based; settings: Escherichia coli, ATCC25922, 99.9% killing
In short: as §1

E. faecalis ATCC 29212 = assay: Minimal Bactericidal Concentration (MBC); assay type: cell-based; settings: Enterococcus faecalis, ATCC29212, 99.9% killing
In short: as §1

S. aureus ATCC 29213 = assay: Minimal Bactericidal Concentration (MBC); assay type: cell-based; settings: Staphylococcus aureus, ATCC29213, 99.9% killing
In short: as §1

[2] = system: S. saprophyticus ATCC 15305; assay: Minimal Bactericidal Concentration (MBC); assay type: cell-based; settings: Staphylococcus saprophyticus, ATCC15305; S. saprophyticus ATCC 15305; 99.9% killing; read-out: MBC
In short: as §1

S. aureus MRSA COL = assay: Minimal Bactericidal Concentration (MBC); assay type: cell-based; settings: Staphylococcus aureus, 99.9% killing
In short: as §1

H. influenzae ATCC 49766 [3] = assay: Minimal Bactericidal Concentration (MBC); assay type: cell-based; settings: Haemophilus influenzae, ATCC49766, 99.9% killing
In short: as §1

[4] = system: S. epidermidis ATCC 12228; assay: Minimal Bactericidal Concentration (MBC); assay type: cell-based; settings: Staphylococcus epidermidis, ATCC12228, 99.9% killing
In short: as §1

E. faecium ATCC 35667 = assay: Minimal Bactericidal Concentration (MBC); assay type: cell-based; settings: Enterococcus faecium, ATCC35667, 99.9% killing
In short: as §1

E. faecium VanA = assay: MIC broth microdilution, antibiotic resistant strain panel; assay type: cell-based; settings: Enterococcus faecium; multi-resistant E. faecium VanA; read-out: MIC
In short: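 Broth microdilution per NCCLS in cation-adjusted Mueller Hinton broth, inoculum 10^5-10^6 CFU/ml, serial 2-fold dilutions, 24 h at 35 °C. MIC is lowest concentration with no visible growth, read at 650 nm and visually.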

H. influenzae ATCC 49247 [5] = assay: MIC broth microdilution (NCCLS), fastidious bacteria; assay type: cell-based; settings: Haemophilus influenzae, ATCC49247, HTM, 5% CO2
In short: (§2)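 NCCLS broth microdilution; inoculum 10^5-10^6 CFU/ml; 2-fold serial dilutions; 35° C, 24 h; A650 plus visual read. Media: MHBCA (S. saprophyticus, E. faecium), MHBCA + 2% laked horse blood (Listeria), HTM (Haemophilus), the last two under 5% CO2.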

[6] = system: L. monocytogenes ATCC 13932; assay: as above; assay type: cell-based; settings: Listeria monocytogenes, ATCC13932, MHBCA with 2% laked horse blood, 5% CO2
In short: as §2

C. jejuni ATCC 33291 = assay: as above; assay type: cell-based; settings: Campylobacter jejuni, ATCC33291; C. jejuni ATCC 33291; MHBCA with 2% laked horse blood, 5% CO2; read-out: MIC
In short: as §2

H. influenzae ATCC 49766 [7] = assay: as above; assay type: cell-based; settings: Haemophilus influenzae, ATCC49766, HTM, 5% CO2
In short: as §2

S. aureus strain Newman = assay: S. aureus model of systemic infection in the mouse; assay type: in vivo, Staphylococcus aureus; settings: CD-1 female mice, i.p. 10^7 CFU S. aureus Newman; oral gavage 15 mg/kg at 1 hour post-infection; kidneys 5 hours after inoculation; FIG. 3
Protocol: In vivo efficacy. The antimicrobial activity of compounds was also evaluated in a S. aureus model of systemic infection in the mouse. To produce the systemic infection, CD-1 female mice (20 g) were injected intra-peritoneally with 10^7 CFU of S. aureus strain Newman suspended in 0.5 ml of endotoxin-free PBS containing 5% mucin (w/v). The compounds were administrated by oral gavage (15 mg/kg) at 1 hour post-infection and kidneys harvested and pooled, for each animal, 5 hours after bacterial inoculation. Tissues were homogenized in PBS and homogenates serially diluted and plated for CFU determination.

[8] = system: B. cereus, B. subtilis and B. atrophaeus; assay: MIC broth microdilution, Bacillus species; assay type: cell-based; settings: three Bacillus species (B. cereus, B. subtilis and B. atrophaeus); data not shown
Protocol: Minimal Inhibitory Concentration (MIC) Determination. Bacteria (primary strain panel, TABLE 1). Susceptibility tests were performed following the recommendations from the National Committee for Clinical Standards (NCCLS). The MICs were determined by a broth microdilution technique using a final volume of 100 μl of cation-adjusted Mueller Hinton Broth (MHBCA) and a bacterial inoculum of 10^5-10^6 Colony Forming Units (CFU)/ml. The inocula were verified and precisely determined by applying 10-μl drops of 10-fold dilutions onto Triptic Soy Agar plates. The CFU were counted after an incubation of 24 h at 35° C. Any experiment showing an inoculum that was more or less than 10^5-10^6 CFU/ml was rejected. Control antibiotics and test compounds were prepared at a concentration equivalent to 2-fold the highest desired final concentration. Compounds were then diluted directly in the 96-well microtiter plates by serial 2-fold dilutions using a multichannel pipette. Microtiter plates were incubated during 24 h at 35° C. and growth was recorded by using a microtiterplate reader at 650 nm as well as by visual observation. The MIC was defined as the lowest concentration of compound yielding no visible growth. […] Fastidious bacteria. The medium used for Listeria monocytogenes, Neisseria meningitidis, and Campylobacter jejuni was MHBCA containing 2% laked horse blood. […]

B. catarrhalis ATCC 8176 [9] = assay: MIC broth microdilution (NCCLS), fastidious bacteria; assay type: cell-based, Branhamella (Moraxella) catarrhalis; settings: Moraxella catarrhalis, ATCC8176, HTM, 5% CO2
In short: as §2

Solubility in water = assay type: physicochemical; settings: read-out: solubility in water (no visible particles)
Protocol: Solubility of Compounds V and XV. The extent of solubility of compounds was evaluated in water.

B. catarrhalis ATCC 8176 [10] = assay: Minimal Bactericidal Concentration (MBC); assay type: cell-based, Branhamella (Moraxella) catarrhalis; settings: Moraxella catarrhalis, ATCC8176, 99.9% killing
In short: as §1

Question: For `O=[N+]([O-])c1ccc(C=Cc2nc(Nc3ccc(O)cc3)c3cc(F)ccc3n2)o1` [Compound V, 6-fluoro-2-[2-(5-nitro-2-furyl)vinyl]-4-(p-hydroxyanilino)-quinazoline], which MBC (H. influenzae ATCC 49247 [1]) is on record?
Answer: Its MBC is 0.06 µg/mL (≈ 0.153 µM).

Question: What about the MBC (E. coli ATCC 25922) of the same compound?
Answer: The MBC was 0.5 µg/mL (≈ 1.27 µM).

Question: What about the MBC (E. faecalis ATCC 29212) of the same compound?
Answer: Its MBC is 0.03 µg/mL (≈ 0.0765 µM).

Question: And the MBC (S. aureus ATCC 29213)?
Answer: Its MBC is 0.06 µg/mL (≈ 0.153 µM).

Question: And the MBC [2]?
Answer: The MBC was 0.03 to 0.06 µg/mL (≈ 0.0765 to 0.153 µM).

Question: What about the MBC (S. aureus MRSA COL) of the same compound?
Answer: Its MBC is 0.06 µg/mL (≈ 0.153 µM).

Question: And the MBC (H. influenzae ATCC 49766 [3])?
Answer: Its MBC is 0.06 µg/mL (≈ 0.153 µM).

Question: What about the MBC [4] of the same compound?
Answer: The MBC was 0.03 µg/mL (≈ 0.0765 µM).

Question: What about the MBC (E. faecium ATCC 35667) of the same compound?
Answer: The MBC was 0.25 µg/mL (≈ 0.637 µM).

Question: And the MIC (E. faecium VanA)?
Answer: The MIC was 0.03 µg/mL (≈ 0.0765 µM).

Question: And the MIC (H. influenzae ATCC 49247 [5])?
Answer: The MIC was 0.03 µg/mL (≈ 0.0765 µM).

Question: And the MIC [6]?
Answer: Its MIC is 0.03 to 0.25 µg/mL (≈ 0.0765 to 0.637 µM).

Question: What about the MIC (C. jejuni ATCC 33291) of the same compound?
Answer: Its MIC is 0.016 µg/mL (≈ 0.0408 µM).

Question: What about the MIC (H. influenzae ATCC 49766 [7]) of the same compound?
Answer: The MIC was 0.06 µg/mL (≈ 0.153 µM).

Question: What about the “viable bacteria in the kidneys” value (S. aureus strain Newman) of the same compound?
Answer: The value was “reduced significantly”.

Question: What about the MIC [8] of the same compound?
Answer: Its MIC is 0.03 to 0.125 µg/mL (≈ 0.0765 to 0.319 µM).

Question: And the MIC (B. catarrhalis ATCC 8176 [9])?
Answer: Its MIC is 8 ng/mL (≈ 0.0204 µM).

Question: And the solubility (Solubility in water)?
Answer: Its solubility is 250 µg/mL (≈ 637 µM).

Question: What about the MBC (B. catarrhalis ATCC 8176 [10]) of the same compound?
Answer: The MBC was 0.03 µg/mL (≈ 0.0765 µM).
